“Also recorded” adds a separate entry of the source. Like-named read-outs stand apart in the source and are kept apart here.
What was measured:
[1] = tested on: LRRK2 mediated phosphorylation of Rab10 at Thr73; assay: Rab10 Thr73 phospho-immunoblot in wild-type MEFs; type: cell-based, mouse; conditions: for IC50: Mus musculus
Protocol: Wild-type and homozygous LRRK2 [R1441C] […] All cells were grown at 37°C, 5% (by vol) CO2 in a humidified atmosphere and regularly tested for mycoplasma contamination.
(§1) Inhibitors were dissolved in dimethyl sulfoxide (DMSO) (Sigma, #D2650). The inhibitors were diluted 1000× into cell medium. The equivalent volume of DMSO was added to the minus inhibitor controls. Experiments were performed in six-well plates, 10 cm dishes or 15 cm dishes depending on the amount of cell extract required.
(§2) Lysates were incubated on ice for 30 min and clarified by centrifugation at 20 800×g at 4°C for 20 min. Supernatants were quantified by Bradford assay (Bio-Rad Protein Assay Dye Reagent Concentrate #5000006) and samples prepared in 1× lithium dodecyl sulfate sample buffer final concentration (NuPage LDS Sample buffer 4× Invitrogen, #NP0008). When not deployed immediately, lysates were snap-frozen in liquid nitrogen and stored at −80°C until use.
Cell extracts were mixed with a quarter of a volume of NuPage LDS Sample buffer 4× Invitrogen and heated at 95°C for 5 min. […] At the end of electrophoresis, proteins were electrophoretically transferred onto the nitrocellulose membrane (GE Healthcare, Amersham Protran Supported 0.45 µm NC) at 100 V for 90 min on ice in the transfer buffer (48 mM Tris–HCl and 39 mM glycine supplemented with 20% methanol). Transferred membrane was blocked with 5% (w/v) skim milk powder dissolved in TBS-T [20 mM Tris–HCl, pH 7.5, 150 mM NaCl and 0.1% (v/v) Tween 20] at room temperature for 1 h. The membrane was typically cropped into three pieces, namely the ‘top piece’ (from the top of the membrane to 75 kDa), the ‘middle piece’ (between 75 and 30 kDa) and the ‘bottom piece’ (from 30 kDa to the bottom of the membrane). All primary antibodies were used at 1 μg/ml final concentration and incubated in TBS-T containing 5% (by mass) bovine serum albumin with exception of α-tubulin and GAPDH antibodies that were diluted 1 : 5000 and 1 : 2000, respectively. The top piece was incubated with the indicated rabbit anti-LRRK2 phosphorylation site antibody multiplexed with mouse anti-LRRK2 C-terminus total antibody. The middle piece was incubated with mouse anti-GAPDH or anti-α-tubulin antibody. The bottom pieces were incubated with indicated total and phospho-Rab antibodies. Membranes were incubated in primary antibody overnight at 4°C. Prior to secondary antibody incubation, membranes were washed three times with TBS-T for 10 min each. […] Membranes were washed with TBS-T for three times with a 10 min incubation for each wash. Protein bands were acquired via near infrared fluorescent detection using the Odyssey CLx imaging system and quantified using the Image Studio software.

[2] = tested on: LRRK2 Ser935 phosphorylation, LRRK2[R1441C]; assay: LRRK2 Ser935 phospho-immunoblot in LRRK2[R1441C] knock-in MEFs; type: cell-based, mouse
Protocol: Wild-type and homozygous LRRK2 [R1441C] (Jax, stock number: 009346), LRRK2[G2019S] Taconic, (model 13940) and LRRK2 [A2016T] (Jax, stock number: 021828)[7] knock-in MEF cells were isolated from littermate-matched mouse embryos on a C57BL/6J background at day E12.5 as described previously. MEFs were grown in Dulbecco's modified Eagle medium (DMEM GIBCO, #11960-085) containing 10% (by vol) fetal bovine serum (FBS), 2 mM L-glutamine, 100 U/ml penicillin, and […] streptomycin supplemented with non-essential amino acids and 1 mM sodium pyruvate. Human embryonic kidney 293 (HEK293) (#ATCC CRL-1573) and HeLa (#ATCC CCL-2) cells were purchased from American Tissue Culture Collection (ATCC) and cultured in DMEM containing 10% (by vol) FBS, 2 mM L-glutamine, 100 U/ml penicillin, and […] streptomycin. All cells were grown at 37°C, 5% (by vol) CO2 in a humidified atmosphere and regularly tested for mycoplasma contamination.
as §1
as §2, with “Cells were lysed in an ice-cold lysis buffer containing 50 mM Tris–HCl, pH 7.4, 1% (by vol) Triton X-100, 10% (by vol) glycerol, 150 mM NaCl, 1 mM sodium orthovanadate, 50 mM NaF, 10 mM 2-glycerophosphate, 5 mM sodium pyrophosphate, 1 µg/ml microcystin-LR, and cOmplete EDTA-free protease inhibitor cocktail (Roche, #11836170001). Lysates” for “Lysates”
Cell extracts were mixed with a quarter of a volume of NuPage LDS Sample buffer 4× Invitrogen and heated at 95°C for 5 min. […] At the end of electrophoresis, proteins were electrophoretically transferred onto the nitrocellulose membrane (GE Healthcare, Amersham Protran Supported 0.45 µm NC) at 100 V for 90 min on ice in the transfer buffer (48 mM Tris–HCl and 39 mM glycine supplemented with 20% methanol). Transferred membrane was blocked with 5% (w/v) skim milk powder dissolved in TBS-T [20 mM Tris–HCl, pH 7.5, 150 mM NaCl and 0.1% (v/v) Tween 20] at room temperature for 1 h. […]

[3] = tested on: mouse embryonic fibroblast cells (MEFs); assay: Cell morphology and attachment of MEFs; type: cell-based

Cc1ccc(C(=O)Nc2ccc(CN3CCN(C)CC3)c(C(F)(F)F)c2)cc1C#Cc1cnc2[nH]ncc2c1 [GZD-824]
IC50 ([1]; 2 h, Figure 4, read-out: IC50 for dephosphorylation of Rab10, wild type MEFs (estimate in text)): 70 nM | IC50 ([1]; 2 h, wild type MEFs littermate matched to LRRK2[G2019S], 2 h, panel (B), read-out: LRRK2 WT Rab10 pThr73 IC50): 65.9 nM | IC50 ([1]; 2 h, wild type MEFs littermate matched to LRRK2[R1441C], 2 h, panel (A), read-out: LRRK2 WT Rab10 pThr73 IC50): 86.5 nM | IC50 ([1]; 2 h, wild-type MEFs, 2 h, Figure 2A, read-out: IC50 inhibition of Rab10 phosphorylation): ~300 nM | Rab10 phosphorylation level after treatment ([1]; wild-type MEFs, 1 μM, 2 h): almost background levels; also recorded: almost basal levels | Rab10 phosphorylation over 24 h time course ([1]; wild-type MEFs, 1 μM, 24 h): remained suppressed | time to 50% reduction of Rab10 phosphorylation ([1]; wild-type MEFs, 1 μM, Figure 2C): ~10 min | time at which Ser935 phosphorylation plateaued ([2]; LRRK2[R1441C] cells, 1 μM): 160 min | time by which Ser935 phosphorylation increased ([2]; LRRK2[R1441C] cells, 1 μM): ≤ 40 min | effect on Ser935 phosphorylation in LRRK2[R1441C] knock-in cells ([2]; dose and time dependent): rescue Ser935 phosphorylation | concentration that impacted cell morphology and attachment [3]: ≥ 10 μM

Source: PMC8589421, “Impact of Type II LRRK2 inhibitors on signaling and mitophagy” (Biochemical Journal, 2021)
